# System: whitefly Bemisia tabaci
# Assay: Bemisia test (cotton plants infested with whitefly, immersed in active compound preparation)
# Type: in vivo
# Conditions: single active compound, 4 ppm; eggs, larvae and pupae on cotton plants (Gossypium hirsutum), immersion
# Description: The expected action for a given combination of two active compounds can be calculated as follows, using the formula of S. R. Colby, Weeds 15 (1967), 20–22:
# • X is the efficacy, expressed as % of the untreated control, when employing active compound A at an application rate of m g/ha or in a concentration of m ppm, • Y is the efficacy, expressed as % of the untreated control, when employing active compound B at an application rate of n g/ha or in a concentration of n ppm and • E is the efficacy, expressed as % of the untreated control, when employing active compounds A and B at application rates of m and n g/ha or in a concentration of m and n ppm, then
# [formula] If the actual insecticidal kill rate exceeds the calculated value, the action of the combination is superadditive, i.e. a synergistic effect is present. In this case, the actually observed insecticidal kill rate must exceed the value calculated using the above formula for the expected insecticidal kill rate (E).
# • Solvent: 7.5 parts by weight of dimethylformamide • Emulsifier: 2.5 parts by weight of alkylaryl polyglycol ether
# To produce a suitable preparation of active compound, 1 part by weight of active compound is mixed with the stated amounts of solvent and emulsifier, and the concentrate is diluted with water to the desired concentration.
# Cotton plants (Gossypium hirsutum) which are infested with eggs, larvae and pupae of the whitefly Bemisia tabaci are immersed in a preparation of active compound of the desired concentration.
# After the desired period of time, the kill in % is determined. 100% means that all animals have been killed; 0% means that none of the animals have been killed.
row,SMILES,Kill rate in % after 10^d [%]
1,"Cc1c(COC(=O)C2C(/C=C(\Cl)C(F)(F)F)C2(C)C)cccc1-c1ccccc1 (stereo not drawn) [Bifenthrin, bifenthrin]",0
2,Cc1cc(C)c(C2=C(OC(=O)CC(C)(C)C)C3(CCCC3)OC2=O)c(C)c1 [Ex. (I-b-1)],0
3,"CC1(C)C(C=C(Cl)Cl)C1C(=O)OC(C#N)c1ccc(F)c(Oc2ccccc2)c1 (stereo not drawn) [Cyfluthrin, cyfluthrin]",0

# Reference: patent publication US7232845B2, “Active substance combinations comprising insecticidal and acaricidal properties” (Bayer CropScience AG, priority 2000, dated 2007)
